From patent US10899776B2, “Antiviral and antibacteria agents based on quaternary ammonium compound complexed with boric acid and its derivatives” (B-Organic Films Corp, priority 2015, dated 2021) come the findings set out here.

The subject of this assay is White Spot Syndrome Virus (WSSV). Nature of the assay: Challenge of shrimp L. vannamei with White Spot Syndrome Virus, survival. The assay is classed as in vivo. Conditions: for survival rate: positive control 10%. As to the method: The virus is isolated from WSSV-infected adult L. vannamei shrimp obtained from commercial farms located in Sinaloa, Mexico in 2013. Virus stocks were purified from infected shrimp homogenates by improved differential centrifugation as described previously by Du et al, (Du, H. H., Fu, L. L., Xu, Y. X., Kil, Z. S., Xu. Z. R. 2007. Aquaculture, 262:532-534) and then stored at −80° C. For assays, the WSSV stock is serially diluted to prepare solutions containing various target copy numbers determined by competitive PCR.
A volume of 20 μL of different dilutions of the tissue homogenate (containing WSSV in 330 mM of NaCl) is injected intramuscularly in fourth or fifth abdominal segment of L. vannamei using an insulin needle. The mortality is recorded twice a day and dead shrimp are tested by PCR to highlight the presence of WSSV.
There are two control groups: • 1.
The shrimp mortality percentage is recorded daily.
Dead shrimp are recorded daily during 120 hours.

For the compound `C[N+](C)(C)CCOB1OB2OB(O1)OB1OB(O2)O1.[Cl-]` [choline/pentaborate complex], where the note is “5 mg/g in feed diets, standardized injection protocols”, the “impact of WSSV infection (summary statement)” value is “effective in reducing impact of WSSV infection”. In addition, the survival is, setting by setting: (1% WSSV suspension, 96 h post-challenge, 5 mg/g feed, positive control about 35%, p<0.05) 85%; (1% WSSV suspension, after 72 h, 5 mg/g feed, positive control about 65%) 95%; (3% WSSV suspension, after 48 hours, 5 mg/g feed, positive control about 80%) 95%. The survival rate is recorded as roughly 40% (3% WSSV suspension, 96 h post-challenge, 1 mg/g feed) and roughly 40% (3% WSSV suspension, 96 h post-challenge, 5 mg/g feed).
